Reference: article PMC10673511, “Design, Synthesis and Bioactivity Evaluation of Heterocycle-Containing Mono- and Bisphosphonic Acid Compounds” (Molecules, 2023)
Values after ≈ are worked out from the molar mass of the structure shown. Where two headings read alike, the source gives them in different places.

Legend:
Brassica napus L. = experiment: Pre-emergence herbicidal inhibition assay, Petri dish test, BN; format: in vivo; conditions: for EC50: Brassica napus, 168 h; for Relative activity ratio (BN root) / Relative activity ratio (BN stalk): relative to FOS
Description: (§1) The pre-emergence activity of the compounds against monocot Echinochloa crus-galli (EC) and dicot Brassica napus L. (BN) was evaluated using the standard Petri dish test. The compounds were dissolved in DMF, emulsified with Tween-80 and diluted with water to form stock solutions, each of which was further diluted to a gradient of 100, 50, 25, 10 and 1 mg/L for test. The test solutions were added to Petri dishes lined with a filter paper, on which 10 seeds of EC and BN were placed. After cultured in an intelligent climate chamber with a humidity of 65% at 26 °C for 7 days, the corresponding EC50 values were calculated.

Amaranthus retroflexus = experiment: Post-emergence herbicidal inhibition assay, AR; format: in vivo; conditions: 300 g ai/ha spray, two weeks after treatment; for Loss of Weight (%) AR: fresh weighing
Description: (§2) The post-emergence activity of compounds against EC and Amaranthus retroflexus (AR) was determined at a dose of 300 g ai/ha. The model plants initially grow as seedlings, and a few days prior to treatment, five seedlings with similar growth conditions for the plant were transplanted into one pot containing nutrient soil. The test solutions were prepared by dissolving the compounds in water containing DMF and Tween-80 and sprayed when the plant grew to the 1~2 leaf stage. The herbicidal activity was evaluated via visual observation and fresh weighing after two weeks of treatment.

Echinochloa crus-galli [1] = experiment: Post-emergence herbicidal inhibition assay, EC; format: in vivo; conditions: for Loss of Weight (%) EC / Visual Evaluation EC: 300 g ai/ha spray, two weeks after treatment; for Loss of Weight (%) EC: fresh weighing
Description: as §2

Arabidopsis thaliana [2] = experiment: Arabidopsis growth inhibition assay (24-well plates, green channel pixel value); conditions: for EC50 / pest or weed control at 100 µg/mL: Arabidopsis thaliana, 240 h; for EC50: read-out: EC50 against Arabidopsis growth; for pest or weed control at 100 µg/mL: read-out: InR (%) against Arabidopsis
Echinochloa crus-galli [3] = experiment: Pre-emergence herbicidal inhibition assay, Petri dish test, EC; format: in vivo; conditions: for EC50: Echinochloa crus-galli, 168 h; for Relative activity ratio (EC root) / Relative activity ratio (EC stalk): relative to FOS
Description: as §1

[4] = target: recombinant E. coli DXR (EcDXR) (Escherichia coli, UniProt P45568); experiment: biochemical; conditions: for inhibition at 100 µM: read-out: InR (%) on DXR enzyme
recombinant E. coli DXR (EcDXR), sequence (P45568 whole entry): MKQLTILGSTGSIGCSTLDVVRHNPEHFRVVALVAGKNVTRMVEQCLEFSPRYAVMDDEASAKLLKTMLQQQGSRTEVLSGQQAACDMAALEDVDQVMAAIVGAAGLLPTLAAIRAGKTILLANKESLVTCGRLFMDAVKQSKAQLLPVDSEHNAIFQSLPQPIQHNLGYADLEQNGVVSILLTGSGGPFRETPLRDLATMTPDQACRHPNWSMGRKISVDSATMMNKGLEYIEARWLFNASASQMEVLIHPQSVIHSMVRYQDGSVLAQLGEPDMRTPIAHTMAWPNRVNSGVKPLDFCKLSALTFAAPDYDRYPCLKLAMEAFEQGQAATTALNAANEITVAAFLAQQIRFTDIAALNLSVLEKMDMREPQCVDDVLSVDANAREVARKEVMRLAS

Arabidopsis thaliana [5] = experiment: DMAPP rescue on Arabidopsis; format: in vivo; conditions: FOS 40 mg/L; for rescue of developmental arrest and bleaching by DMAPP (change of pixel values): 13e 20 mg/L, t-test
Description: The DMAPP rescue on Arabidopsis was conducted using the afore-mentioned culture conditions. […] To one of the two species in each group, an additional 150 μg of DMAPP (Aladdin) was added. After 10 days of cultivation, the green channel pixel values of Arabidopsis in each well were measured. A two-tailed paired Student’s t-test was used to compare the two species within the same group, and p < 0.05 indicates a statistically significant difference.

MtDXR = test system: MtDXR; design: method as in PMID 21824775; conditions: cited from earlier work
[6] = root, 7 days, read-out: EC50 BN Root
[7] = stalk, 7 days, read-out: EC50 BN Stalk
[8] = root, 7 days, read-out: EC50 EC Root
[9] = stalk, 7 days, read-out: EC50 EC Stalk

Compound	Relative activity ratio (BN root) (Brassica napus L.) [fold]	Relative activity ratio (BN stalk) (Brassica napus L.) [fold]	Loss of Weight (%) AR (Amaranthus retroflexus) [%]	Visual Evaluation AR (Amaranthus retroflexus)	Loss of Weight (%) EC (Echinochloa crus-galli [1]) [%]	Visual Evaluation EC (Echinochloa crus-galli [1])	EC50 (Arabidopsis thaliana [2]) [µg/mL]	pest or weed control at 100 µg/mL (Arabidopsis thaliana [2]) [%]	Relative activity ratio (EC root) (Echinochloa crus-galli [3]) [fold]	Relative activity ratio (EC stalk) (Echinochloa crus-galli [3]) [fold]	inhibition at 100 µM [4] [%]	EC50 (Brassica napus L.; [6]) [µg/mL]	EC50 (Brassica napus L.; [7]) [µg/mL]	EC50 (Echinochloa crus-galli [3]; [8]) [µg/mL]	EC50 (Echinochloa crus-galli [3]; [9]) [µg/mL]	rescue of developmental arrest and bleaching by DMAPP (change of pixel values) (Arabidopsis thaliana [5]; DMAPP 150 mg/L)	further results
Cc1onc(O)c1CCP(=O)(O)O [Compound 6a]	2.0	3.1	35.6	+ (“+”: ≥20%)	30.8	+ (“+”: ≥20%)	28.6 ± 3.9 (≈ 138 µM)	90.4	1.7	2.0	15.8	–	–	–	–	–	EC50 (Brassica napus L.; read-out: EC50 BN Root): 17.3 µg/mL (≈ 83.5 µM); EC50 (Brassica napus L.; read-out: EC50 BN Stalk): 10.5 µg/mL (≈ 50.7 µM); EC50 (Echinochloa crus-galli [3]; read-out: EC50 EC Root): 24 µg/mL (≈ 116 µM); EC50 (Echinochloa crus-galli [3]; read-out: EC50 EC Stalk): 18.9 µg/mL (≈ 91.3 µM)
Cc1onc(O)c1CC(P(=O)(O)O)P(=O)(O)O [Compound 13a]	1.3	3.9	52.3	++ (“++”: ≥40%)	35.8	+ (“+”: ≥20%)	21.6 ± 3.8 (≈ 75.2 µM)	100	1.5	3.8	60.2	26.9 (≈ 93.7 µM)	8.5 (≈ 29.6 µM)	27.1 (≈ 94.4 µM)	10.2 (≈ 35.5 µM)	–	IC50 [4]: 77.9 µM
CC(C)c1onc(O)c1CC(P(=O)(O)O)P(=O)(O)O [Compound 13d]	1.4	3.0	45.7	++ (“++”: ≥40%)	34.9	+ (“+”: ≥20%)	23.1 ± 1.9 (≈ 73.3 µM)	93.2	1.5	2.8	14	25.2 (≈ 80 µM)	11 (≈ 34.9 µM)	27.2 (≈ 86.3 µM)	13.5 (≈ 42.8 µM)	–	–
O=P(O)(O)C(Cc1c(O)noc1C(F)(F)F)P(=O)(O)O [Compound 13e]	3.2	14.3	70.3	+++ (“+++”: ≥60%)	53.5	++ (“++”: ≥40%)	7.8 ± 1.2 (≈ 22.9 µM)	100	5.4	9.4	54.9	10.7 (≈ 31.4 µM)	2.3 (≈ 6.74 µM)	7.4 (≈ 21.7 µM)	4.1 (≈ 12 µM)	did not show a significant increase	fold more active than FOS, inhibition rate on EC via fresh weighing (Echinochloa crus-galli [1]; post-emergence, 300 g ai/ha): 1.0 fold; fold inhibitory activity on Arabidopsis relative to FOS (Arabidopsis thaliana [2]; from EC50 values): 3.7 fold
CC1(C)CON(CCCC(P(=O)(O)O)P(=O)(O)O)C1=O [Compound 20]	1.0	4.0	23.6	+ (“+”: ≥20%)	22.9	+ (“+”: ≥20%)	> 100	47.9	1.0	1.5	29.5	34.6 (≈ 104 µM)	8.2 (≈ 24.8 µM)	40 (≈ 121 µM)	25.2 (≈ 76.1 µM)	–	melting point: > 250 °C
O=CN(O)CCCP(=O)(O)O [FOS, Fosmidomycin, reference compound]	–	–	31.5	+ (“+”: ≥20%)	27.4	+ (“+”: ≥20%)	27.5 ± 3.1 (≈ 150 µM)	86.8	–	–	98.7	34.7 (≈ 190 µM)	32.9 (≈ 180 µM)	40.2 (≈ 220 µM)	38.4 (≈ 210 µM)	rescued	green channel pixel value of Arabidopsis images, without DMAPP (Arabidopsis thaliana [5]; 10 days): 32,789; green channel pixel value of Arabidopsis images, with DMAPP (Arabidopsis thaliana [5]; DMAPP 150 mg/L, 10 days): 54,164; IC50 (MtDXR): 0.08 µM
